Test results published in patent US20210261690A9, “Method of Generating Anti-Linaclotide Antibodies and Uses Thereof” (Ironwood Pharmaceuticals, Inc., priority 2018, published 2021).
Several values for one entry are separate records, joined by “and”; a condition that tells them apart may be missing. Equal values may be shown once. Bridge positions count the residues as written; N and C are the ends. Ends that are not written are not given here. Peptide text beside a SMILES is read from it.

Tests used:
[1] = Phase 2b studies for CC, four-week treatment period; cited from earlier work
[2] = after oral administration at therapeutic dose levels; cited from earlier work
[3] = system: anti-linaclotide antibodies obtained using protocol 2; assay: Cross-reactivity competition assay; type: binding, rabbit; settings: 6.3 μg/mL peptide, 500 ng/mL antibody from protocol 2
Description: The cross-reactivity assay to test for cross-reactivity to the endogenous hormones, uroguanylin and guanylin, is a competition assay similar to the confirmatory assay (Example 7).
To determine if the positive control antibody produced by protocol 2 could bind either of the endogenous hormones, uroguanylin or guanylin peptides were used in place of linaclotide in a competition assay similar to the confirmatory assay described in Example 7. During development, the IC80 concentration for linaclotide, 6.3 μg/mL, was chosen as a relevant test concentration for cross-reactivity because it is on the higher end of the linear range of the inhibition curve (FIG. 18). This concentration (6.3 μg/mL) is approximately 10,000 times the systemic circulating levels of uroguanylin and guanylin. A non-related peptide, C-type natriuretic peptide (CNP), was added as a negative control in this assay.

[4] = system: positive control antibody produced by protocol 1; assay: Bridging cross-reactivity assay with fluorescein-modified detection peptides; type: binding, rabbit; settings: 500 ng/mL antibody, 312 ng/mL SEQ ID NO: 8, 312 and 625 ng/mL fluorescein-modified peptides
Description: A bridging cross-reactivity assay similar to the screening assay (Example 6) was set up to detect direct binding of the positive control antibody to both linaclotide and uroguanylin or guanylin. For use as detection peptides, uroguanylin and guanylin were synthesized with fluorescein coupled to their N terminus (SEQ ID NO: 10 and SEQ ID NO: 12, respectively; Table 4). This cross-reactivity assay used SEQ ID NO: 8 (Table 4) as the capture peptide, just as in the screening assay, and either SEQ ID NO: 10 (for uroguanylin) or SEQ ID NO: 12 (for guanylin) as the detection peptide. Sheep anti-fluorescein HRP-conjugated antibody was used for detection of positive control antibodies. The antibody must directly bind both the linaclotide-capture peptide and uroguanylin or guanylin to generate a signal in the assay (FIG. 21). A fluorescein-modified PGC1a peptide was purchased for use as a negative control for cross-reactivity.
This cross-reactivity assay was performed using 500 ng/mL of positive control antibody produced by protocol 1, 312 ng/mL of SEQ ID NO: 8, and 2 concentrations (312 and 625 ng/mL) of fluorescein-modified peptides for each set of reactions. […] Positive control antibody is excluded from blank incubations.

[5] = system: antibody obtained from protocol 2; assay: Confirmatory assay (ELISA bridging assay with linaclotide competition); type: binding, rabbit; settings: 500 ng/mL antibody from protocol 2, 300 ng/mL SEQ ID NO: 8, 312 ng/mL SEQ ID NO: 9
Description: The initial bridging assay was developed using a biotinylated form of linaclotide, SEQ ID NO: 8, for antibody capture, and the linaclotide-tracer peptide, SEQ ID NO: 9, for detection on a streptavidin plate. […] A sheep anti-fluorescein antibody conjugated to HRP was used for detection of SEQ ID NO: 9 to enhance the signal over direct detection of the fluorescein moiety by ultraviolet-visible spectroscopy (UV/Vis). In this initial assay, the capture peptide (biotin-linaclotide), detection peptide (fluorescein-linaclotide), and anti-linaclotide antibodies were first incubated overnight in solution to allow complexes to form. These complexes were captured on a streptavidin plate, which was then washed. Bound complexes were detected with an HRP-conjugated anti-fluorescein antibody followed by addition of the HRP substrate and colorimetric detection.
The confirmatory assay was developed as a variation of the ELISA-based bridging assay (Example 6) with competition using fluorescein for detection. The peptide antibody incubation mixture was spiked with native linaclotide, and the concentrations of positive control antibody, capture peptide, and detection peptide were kept constant.
A binding curve was generated using Prism® v.

[6] = system: positive control antibody; assay: Direct-binding ELISA of linaclotide-tracer peptide; design: species or system rabbit; settings: anti-fluorescein antibody conjugated to HRP for detection
Description: Anti-fluorescein antibody conjugated to HRP was used to detect the linaclotide-tracer peptide, SEQ ID NO: 9. The signal increased with increasing antibody concentration.

[7] = system: rabbit anti-linaclotide antibody; assay: Electrochemiluminescence bridging assay, specificity (cross-reactivity); type: binding; settings: individual human serum
Procedure: The electrochemiluminescence assay was used as a validation of a method to detect anti-linaclotide antibodies in human serum using a MSD electrochemiluminescence protocol. Low positive control (LPC), high positive control (HPC), relative light units (RLU), coefficient of variation (CV) and confirmation cut points were determined using MSD procedures. The positive control antibodies used were the antibodies harvested from protocol 2.
The assay is an immunogenicity bridging-based assay developed on MesoScale Discovery Electrochemiluminescence (ECL) technology. It is performed by first mixing a biotinylated-linaclotide analog, a sulfotag-labeled linaclotide analog, and the clinical sample together in a multi-well plate. The presence of anti-linaclotide antibodies in the clinical sample forms an immune complex with a biotin-labeled linaclotide analog and a sulfotag-labeled linaclotide analog. The immune complex is subsequently captured on a streptavidin coated MesoScale Discovery multi-well plate followed by a wash step. The captured immune complex is then detected by electrochemiluminescence generated by the sulfotag-labeled linaclotide portion of the immune complex. The signal generated by the sample is then compared to a pre-determined screening cut point to determine if the sample is positive for the presence of anti-linaclotide antibodies. Samples that are determined to be positive are subjected to a second immunogenicity confirmation assay which is performed by mixing a biotinylated-linaclotide analog, a sulfotag-labeled linaclotide analog, the clinical sample, and unlabeled linaclotide together in a multi-well plate. The immune complex is subsequently captured on a streptavidin-coated MesoScale Discovery multi-well plate followed by a wash step. The captured immune complex is then detected by electrochemiluminescence generated by the sulfotag-labeled linaclotide portion of the immune complex. The signal generated by the sample is then compared to a pre-determined confirmation assay cut point to determine if the sample is positive for the presence of anti-linaclotide antibodies. Samples that are confirmed positive by this assay are subsequently tested at different dilutions to determine the titer of the anti-linaclotide antibody.
Specificity (cross-reactivity) of the assay was assessed by spiking ten drug-naive individual human serum samples containing rabbit anti-linaclotide antibody at the HPC (500 ng/mL) and the screening LPC (44 ng/mL) levels with 10 μg/mL Uroguanylin or Guanylin. At the same time, ten replicates of the antibody-spiked samples (without Uroguanylin or Guanylin) at each level were included to establish the % Inhibition. The following formula was used to calculate the % Inhibition for each individual:
% Inhibition=[(1−(Drug with Antibody/Antibody alone)]*100

[8] = system: antibody produced by protocol 1; assay: Direct-binding ELISA for cross-reactivity with immobilized biotinylated peptides; design: species or system rabbit
Procedure: To further characterize the interactions between the positive control antibody and the cross-reacting peptides, a direct-binding ELISA experiment was conducted in which varying concentrations of biotinylated peptides (linaclotide, uroguanylin, and negative control parathyroid hormone [PTH]) were immobilized on the plate for antibody capture. The assay was performed using either sera from protocol 1 or anti-uroguanylin serum (Abcam ab52806) in ELISA buffer; no adequate control antibody to guanylin is available. HRP-anti-rabbit secondary antibody was used for the detection of anti-linaclotide antibodies, and HRP-anti-mouse secondary antibody was used for the detection of anti-uroguanylin antibodies from the antiserum. […] The signal for uroguanylin binding was approximately 15% of the signal obtained for linaclotide under the same conditions.

For C[C@@H]1NC(=O)[C@@H]2CCCN2C(=O)[C@H](CC(N)=O)NC(=O)[C@@H]2CSSC[C@H](N)C(=O)N[C@H]3CSSC[C@H](NC1=O)C(=O)N[C@@H]([C@@H](C)O)C(=O)NCC(=O)N[C@H](C(=O)N[C@@H](Cc1ccc(O)cc1)C(=O)O)CSSC[C@H](NC(=O)[C@H](Cc1ccc(O)cc1)NC(=O)[C@H](CCC(=O)O)NC3=O)C(=O)N2 [Linaclotide, C1C2EYC3C1NPAC2TGC3Y] (H-CCEYCCNPACTGCY-OH; disulfide 1-6, 2-10, 5-13), which “effect on constipation, abdominal discomfort and bloating” value [1] is on record?
Its value is “reduced constipation, abdominal discomfort, and bloating”.

What about the levels seen systemically [2] of the same molecule?
The levels seen systemically was “no detectable levels”.

And the inhibition of binding [3]?
The inhibition of binding was “approximately 60%”.

What about the “signal in the direct-binding assay for cross-reactivity” value [4] of the same molecule?
The value was “Only linaclotide was able to generate a positive signal”.

What about the “50% inhibitory concentration (IC50)” value [5] of the same molecule?
Its value is 1.4 µg/mL.

And the “80% inhibitory concentration (IC80)” value [5]?
The value was 6.3 µg/mL.

With “Fluorescein-C1 C2 EYC3 C1 NPAC2 TGC3 Y [SEQ ID NO: 9]” as the molecule, how does the “binding to the positive control antibody” value [6] read?
Its value is “confirmed”.

With “NNDC1 ELC2 VAVAC1 TGC2 L (NNDCELCVAVACTGCL; disulfide 4-12, 7-15; not fully specified (N-terminus); printed as NNDC1 ELC2 VAVAC1 TGC2 L) [Uroguanylin, endogenous hormone]” as the molecule, how does the “recognition by antibodies produced by protocol 2 (inhibition versus negative control CNP)” value [3] read?
The value was “not recognized by antibodies produced by protocol 2”.

And the “Percent Inhibition” value ([7]; 10 μg/mL Uroguanylin, antibody at the HPC (500 ng/mL))?
Its value is 10.7% and 18.6% and 9.5% and −11.3% and 10.1% and −11.7% and −1.3% and −0.5% and 0.6% and 1.9%.

What about the “Percent Inhibition” value ([7]; 10 μg/mL Uroguanylin, antibody at the Screening LPC (44.0 ng/mL)) of the same molecule?
The value was −6.6% and 18.4% and 15.7% and 4.8% and −3.8% and −1.5% and 3.2% and 5.1% and −0.5% and −4.1%.

And the “Antibody and 10 μg/mL Uroguanylin (signal)” value ([7]; antibody at the HPC (500 ng/mL))?
The value was 147 and 151 and 145 and 164 and 162 and 185 and 180 (2×) and 169 and 157.

What about the “Antibody and 10 μg/mL Uroguanylin (signal)” value ([7]; antibody at the Screening LPC (44.0 ng/mL)) of the same molecule?
Its value is 59 (2×) and 39 and 44 and 52 (4×) and 51 and 53.

What about the “signal for binding relative to the signal obtained for linaclotide” value ([8]; 60 ng/mL antibody of protocol 1) of the same molecule?
The value was “approximately 15%”.

What about the “binding of antibody produced by protocol 1” value ([8]; 60 ng/mL antibody of protocol 1, varying concentrations of biotinylated peptide, FIG. 20) of the same molecule?
The value was “binds to uroguanylin in a concentration-dependent manner”.

Which “recognition by antibodies produced by protocol 2 (inhibition versus negative control CNP)” value [3] does the source give for “PGTC1 EIC2 AYAAC1 TGC2 (PGTCEICAYAACTGC; disulfide 4-12, 7-15; not fully specified (N-terminus); printed as PGTC1 EIC2 AYAAC1 TGC2) [Guanylin, endogenous hormone]” here?
The value was “not recognized by antibodies produced by protocol 2”.

And the “Antibody and 10 μg/mL Uroguanylin (signal)” value ([7]; Table 7 (Guanylin), antibody at the HPC (500 ng/mL))?
The value was 225 and 199 and 179 and 177 and 174 and 181 and 155 and 135 and 130 and 239.

What about the “Antibody and 10 μg/mL Uroguanylin (signal)” value ([7]; Table 7 (Guanylin), antibody at the Screening LPC (44.0 ng/mL)) of the same molecule?
The value was 71 and 57 (2×) and 55 (2×) and 54 and 53 (2×) and 63 and 51.

And the “Percent Inhibition” value ([7]; Table 7 (Guanylin, 10 μg/mL), antibody at the HPC (500 ng/mL))?
The value was 0.0% and 3.2% and 7.6% and −3.4% and 2.2% and −7.8% and −3.9% and −1.9% and −7.1% and −4.5%.

What about the “Percent Inhibition” value ([7]; Table 7 (Guanylin, 10 μg/mL), antibody at the Screening LPC (44.0 ng/mL)) of the same molecule?
Its value is −7.1% and 8.2% and 3.4% and 12.5% and 11.0% and 7.4% and 6.4% and 3.6% and 0.1% and 7.0%.
